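Protocol summary: plate cells (96-well), add compound at 5 concentrations, incubate 48 h, interpolate endpoints linearly. Here, GI50 denotes the concentration required for 50% inhibition of growth. TGI: total growth inhibition.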 Bounds are passed on as bounds.

Among the test systems are 786-0 renal; KM12 colon; UACC-257 melanoma; M14 melanoma; HS 578T breast; T-47D breast; SF-539 CNS; SNB-75 CNS; DMS 273 small cell lung; LXFL 529 NSCLC.
What all share (test): NCI tumour cell line growth inhibition, 48 h

As to `CN=C(N)N/N=C(\c1ccccc1)c1ccc(Br)cc1`, the GI50 in the assay with 786-0 renal was 0.523 µM; with KM12 colon it was 0.334 µM; in the assay on UACC-257 melanoma, 0.913 µM; in the assay on M14 melanoma, 0.272 µM; in the assay on HS 578T breast, 0.38 µM; with T-47D breast it was 2.96 µM. In addition, the GI50 in the assay on SF-539 CNS is 0.218 µM; in the assay on SNB-75 CNS, 0.387 µM. The TGI was determined as 4.91 µM in the assay on 786-0 renal; 4.4 µM in the assay with KM12 colon; 12.9 µM in the assay with UACC-257 melanoma; 0.872 µM in the assay on M14 melanoma; 5.37 µM in the assay on HS 578T breast; 26.7 µM in the assay on T-47D breast. Besides, the TGI turned out to be 0.537 µM in the assay on SF-539 CNS and 6.51 µM in the assay with SNB-75 CNS.

As for `CNC(=O)c1ccccc1CC1(O)c2ccccc2Oc2ccccc21`, the GI50 is 20.3 µM in the assay on 786-0 renal; 8.15 µM with KM12 colon; 33.8 µM in the assay on UACC-257 melanoma; 15.3 µM in the assay on M14 melanoma; 16.6 µM in the assay on HS 578T breast; 21.5 µM in the assay on T-47D breast. Moreover, the GI50 is 17.3 µM with SF-539 CNS and 12.4 µM with SNB-75 CNS. Moreover, the TGI with 786-0 renal is 46.4 µM; with KM12 colon it was 44.6 µM; in the assay with UACC-257 melanoma, greater than 100 µM; in the assay with M14 melanoma it was 56.6 µM; in the assay on HS 578T breast, 57.1 µM; with T-47D breast, greater than 100 µM. Also, the TGI in the assay on SF-539 CNS stood at 40.8 µM; in the assay with SNB-75 CNS, 39 µM.

For the compound `CN1CCN(Cc2ccc(C(=O)Nc3cncc(C#Cc4cnc(N)c5ccccc45)c3)cc2C(F)(F)F)CC1`, the GI50 in the assay on 786-0 renal is 1.78 µM; in the assay with KM12 colon, 0.788 µM; in the assay on UACC-257 melanoma it was 2.14 µM; in the assay on M14 melanoma, 4.22 µM; in the assay on HS 578T breast, 2.98 µM; in the assay with T-47D breast, 11.6 µM. For the same compound, the GI50 was 1.54 µM with SF-539 CNS and 3.42 µM in the assay with SNB-75 CNS. The TGI in the assay on 786-0 renal turned out to be 3.25 µM; in the assay on KM12 colon, 2.48 µM; in the assay on UACC-257 melanoma it was 4.34 µM; in the assay on M14 melanoma, 14.8 µM; in the assay on HS 578T breast, 14.6 µM; in the assay with T-47D breast it was 32.2 µM. Besides, the results for the TGI with SF-539 CNS and in the assay on SNB-75 CNS were 2.89 µM and 12.3 µM, respectively.

For the compound `CC(CO)(CO)N=Cc1cc(I)cc(I)c1O`, the TGI in the assay with 786-0 renal was 30.9 µM; in the assay with KM12 colon, 28.2 µM; in the assay with UACC-257 melanoma, 45.1 µM; in the assay on M14 melanoma, 39.3 µM; in the assay with HS 578T breast, 74 µM; in the assay with T-47D breast it was greater than 100 µM. In addition, the values for the TGI in the assay on SF-539 CNS and in the assay with SNB-75 CNS were 31.3 µM and 34.8 µM, respectively.

Take `O=C(CCN1CCN(c2cnc3ccccc3n2)CC1)c1csc2ccccc12`: the GI50 with 786-0 renal is 28.4 µM; in the assay with KM12 colon it was 33.5 µM; in the assay on UACC-257 melanoma, greater than 100 µM; in the assay with M14 melanoma, 75.2 µM; in the assay with HS 578T breast, 43.6 µM; in the assay on T-47D breast it was 18.2 µM. Further, the figures for the GI50 in the assay with SF-539 CNS and in the assay on SNB-75 CNS were 29.3 µM and 24.2 µM, respectively. Besides, the TGI in the assay with 786-0 renal was 79.5 µM; in the assay on KM12 colon, greater than 100 µM; in the assay with UACC-257 melanoma, greater than 100 µM; with M14 melanoma, greater than 100 µM; with HS 578T breast, greater than 100 µM; in the assay on T-47D breast, 43.4 µM. Also, the TGI in the assay on SF-539 CNS is 77.9 µM; in the assay with SNB-75 CNS it was 91.6 µM.

Consider `CN(C)CC(=O)N1CCC(c2ccc(NC(=O)c3ncc(C#N)[nH]3)c(C3=CCCCC3)c2)CC1`, for which the GI50 with 786-0 renal was 3.22 µM; in the assay on KM12 colon, 0.354 µM; in the assay on UACC-257 melanoma, 2.17 µM; with M14 melanoma it was 2.21 µM; in the assay on HS 578T breast it was 2.18 µM; in the assay on T-47D breast, 11.9 µM. The GI50 in the assay with SF-539 CNS was 3.5 µM; in the assay on SNB-75 CNS, 1.25 µM. The TGI with 786-0 renal was found to be 13.1 µM; in the assay on KM12 colon it was 13.8 µM; with UACC-257 melanoma it was 4.8 µM; with M14 melanoma, 4.97 µM; in the assay with HS 578T breast, 12.4 µM; in the assay with T-47D breast, 28.8 µM. Also, the TGI in the assay on SF-539 CNS was 15 µM; with SNB-75 CNS, 9.12 µM.

Regarding `Brc1cccc(-c2cc(-c3ccc4c(c3)OCCO4)[nH]n2)c1`, the GI50 in the assay with 786-0 renal was 2.51 µM; in the assay on KM12 colon, 0.669 µM; in the assay on UACC-257 melanoma it was 11.6 µM; in the assay with M14 melanoma, 0.729 µM; in the assay with HS 578T breast, 1.25 µM; with T-47D breast, 1.34 µM. The GI50 in the assay with SF-539 CNS is 1.8 µM; with SNB-75 CNS, 0.531 µM. Moreover, the TGI turned out to be 28.4 µM in the assay on 786-0 renal; 25.5 µM in the assay on KM12 colon; 52.9 µM in the assay on UACC-257 melanoma; 31.1 µM in the assay with M14 melanoma; 30.6 µM with HS 578T breast; 50.1 µM in the assay with T-47D breast. The TGI with SF-539 CNS turned out to be 8.48 µM; with SNB-75 CNS, 6.58 µM.

`CSC1=NC=CCN1C`: the TGI with 786-0 renal, in the assay with KM12 colon, in the assay on UACC-257 melanoma, in the assay on M14 melanoma, in the assay with SNB-75 CNS and with DMS 273 small cell lung was greater than 100 µM throughout. Moreover, the TGI in the assay with LXFL 529 NSCLC was greater than 100 µM.

For `C=CCSC[C@H](NC(=O)COc1ccccc1)C(=O)NC(C(=O)OCc1ccc([N+](=O)[O-])cc1)=C(C)C`, the TGI with 786-0 renal, in the assay on KM12 colon, in the assay with UACC-257 melanoma, with M14 melanoma, with SNB-75 CNS and with DMS 273 small cell lung was greater than 100 µM each time. The compound further showed a TGI with LXFL 529 NSCLC greater than 100 µM.

Take `O=C(c1ccc2ccccc2c1)c1c(C(F)(F)F)n([O-])c2cc(Cl)c(Cl)cc2[n+]1=O`: the GI50 with 786-0 renal was 1.69 µM; in the assay with KM12 colon, 1.53 µM; with UACC-257 melanoma it was 1.63 µM; in the assay with M14 melanoma, 1.66 µM; in the assay on HS 578T breast, 1.85 µM; in the assay with T-47D breast it was 1.24 µM. Further, the GI50 is 1.59 µM with SF-539 CNS and 1.48 µM in the assay on SNB-75 CNS. Besides, the TGI with 786-0 renal came out at 3.06 µM; in the assay with KM12 colon it was 2.86 µM; with UACC-257 melanoma, 3.03 µM; in the assay on M14 melanoma it was 3.04 µM; in the assay with HS 578T breast, 4.15 µM; with T-47D breast it was 3.01 µM. The TGI in the assay on SF-539 CNS worked out at 2.93 µM; in the assay with SNB-75 CNS, 2.8 µM.

Source of the values: PubChem BioAssay (NCI).
